From paper PMC6504641 (Chembiochem : a European journal of chemical biology, 2018)

Target: BRAF (Homo sapiens, UniProt P15056)
Assay: ELISA kinase assay, phospho-MEK1 readout
Format: biochemical

Chain of BRAF (P15056 whole entry): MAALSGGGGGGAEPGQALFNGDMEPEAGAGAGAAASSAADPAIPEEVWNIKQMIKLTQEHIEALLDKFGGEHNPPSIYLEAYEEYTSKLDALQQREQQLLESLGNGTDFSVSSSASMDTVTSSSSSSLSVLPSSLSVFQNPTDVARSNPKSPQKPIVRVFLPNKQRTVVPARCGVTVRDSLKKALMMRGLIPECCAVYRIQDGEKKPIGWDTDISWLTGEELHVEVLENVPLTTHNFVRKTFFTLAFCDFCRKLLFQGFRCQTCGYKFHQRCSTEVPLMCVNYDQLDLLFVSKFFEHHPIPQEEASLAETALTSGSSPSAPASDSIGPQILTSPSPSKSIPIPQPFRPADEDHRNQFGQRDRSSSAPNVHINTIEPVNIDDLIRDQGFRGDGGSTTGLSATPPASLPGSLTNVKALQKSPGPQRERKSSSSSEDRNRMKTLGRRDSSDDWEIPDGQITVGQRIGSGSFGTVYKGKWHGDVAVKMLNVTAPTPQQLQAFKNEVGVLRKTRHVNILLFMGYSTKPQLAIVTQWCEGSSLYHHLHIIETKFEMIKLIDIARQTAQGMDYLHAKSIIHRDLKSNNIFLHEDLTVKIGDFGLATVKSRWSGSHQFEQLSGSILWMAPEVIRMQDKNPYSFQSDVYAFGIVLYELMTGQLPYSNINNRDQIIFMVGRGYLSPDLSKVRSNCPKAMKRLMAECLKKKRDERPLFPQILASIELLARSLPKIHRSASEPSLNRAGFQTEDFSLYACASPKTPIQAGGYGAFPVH

IC50: 700 pM
Compound: N#Cc1c(Oc2ccc(F)c(NC(=O)Cc3cccc(C(F)(F)F)c3)c2)ccc2nc(NC(=O)C3CC3)sc12 [TAK-632]
